Usually Kd stands for a measure of binding affinity in units of concentration.

The values that follow come from paper PMC7036995 (Molecules, 2020).

Read-outs that look alike come from different tables or passages of the source.

Data set [1] deals with T1, human serum albumin (HSA) (Homo sapiens, UniProt P02768).
T1 construct: purchased Sigma-Aldrich; host or cells: rice
Briefly: Fluorescence spectroscopy of HSA (Trp fluorescence quenching/enhancement; KD by DynaFit). Format: binding. The conditions noted are these: for change of HSA fluorescence with increasing ligand concentration: λEX = 295 nm, T = 310.15 K, pH 7.4, HSA 5 μM; for Kd: HSA 5 μM, pH 7.4, read-out: KD (Fluor.).
Description: To find out if there was any interaction when both studied compounds were present, we performed an analysis of ternary mixtures, [(HSA + Q) + R] and [(HSA + R) + Q], when the first-added compound was pre-incubated with HSA at a constant concentration and the second compound was added at variable concentrations. The concentrations of the first-added drug in the ternary system was 5 μM for Q and 400 μM for R. These concentrations were chosen as an approximate half-saturation point for both compounds.
Therefore, as in previously published research [14], we used the DynaFit software script. Data input consisted of [Ltotal] (total ligand concentrations) for the variable reactant concentrations, [Ptotal] (total protein concentration) for the fixed reactant concentration, and F/F0 for the experimentally observed value. The software calculates [Lfree] (free ligand concentration), creates a semilogarithmic plot of F/F0 vs. [Lfree] and determines the KD value by finding the halfway point in the sigmoid-shaped curve.
Fluorescence spectra were measured in triplicates on a FluoroMax 4 spectrofluorimeter (Horiba Jobin Yvon Scientific, Irvine, CA, USA), equipped with a 1.0 cm path length quartz cell. The slit widths for the excitation and emission were 3.0 nm for all measurements. […] Samples were incubated for 2 min. Buffer background was subtracted from the raw spectra. Fluorescence intensities were corrected for the absorption of excitation light and re-absorption of emitted light to decrease the inner filter using the following relationship [13]:(2) Fcor=Fobs×10^(Aex+Aem)/2 where Fcor and Fobs are the corrected and observed fluorescence intensities, respectively. Aex and Aem are the absorbance values of the experimental solution (including all ligands) at excitation and emission wavelengths, respectively. Corrected spectra were smoothed to minimize the influence of the signal noise.
Fluorescence spectral data after correction and smoothing were used to calculate the dissociation constant (KD) for all studied systems. For evaluation and logarithmic plot fitting we used DynaFit software (version 4.0, BioKin Ltd., Watertown, MA, USA, http://www.biokin.com/dynafit/index.html) using a custom-written script.

Data set [2] addresses T2, bovine serum albumin (BSA) (Bos taurus, UniProt P02769). The note with it: λEX = 295 nm, T = 310.15 K, pH 7.4, BSA 5 μM.
Description: Conditions: T = 310.15 K, pH = 7.4.
Conditions: λEX = 295 nm, T = 310.15 K, pH = 7.4. The HSA and BSA concentrations were 5 μM; FA concentrations were 0.52, 1.04, 2.08, 4.16, 8.33, 16.66, 33.33, 66.66 and 133.33 μM. R concentrations were 15.6, 31.25, 62.5, 125, 250, 500, 1000, 2000 and 4000 μM.
Fluorescence spectra were measured in triplicates on a FluoroMax 4 spectrofluorimeter (Horiba Jobin Yvon Scientific, Irvine, CA, USA), equipped with a 1.0 cm path length quartz cell. The slit widths for the excitation and emission were 3.0 nm for all measurements. The temperatures used for the measurements were 298.15 K, 303.15 K and 310.15 K, respectively. Samples were incubated for 2 min. Buffer background was subtracted from the raw spectra. Fluorescence intensities were corrected for the absorption of excitation light and re-absorption of emitted light to decrease the inner filter using the following relationship [13]:(2) Fcor=Fobs×10^(Aex+Aem)/2 where Fcor and Fobs are the corrected and observed fluorescence intensities, respectively. Aex and Aem are the absorbance values of the experimental solution (including all ligands) at excitation and emission wavelengths, respectively. Corrected spectra were smoothed to minimize the influence of the signal noise.
The next data set concerns HSA. The note with it: cited from earlier work; for Kd: Sudlow's Site 1.
The target in data set [3] is T1, human serum albumin (HSA). Briefly: Microscale thermophoresis (MST) with RED-NHS labeled HSA. Format: binding. As to the method: We performed a full set of MST measurements for mixtures where R was the compound with the concentration gradient.
Figure 9 The MST binding curves for all studied systems. Conditions: T = 297.05 K, pH = 7.4. The concentration of HSA was 20 nM, the starting concentrations of R were 7.15 mM, c(Q) in the ternary system was 20 nM.
For [(HSA + Q) + R] system it was possible to additionally derive KD value from the increase in fluorescence in the initial capillary scans. The mechanism of this feature is the same as in the regular fluorescence experiment (Figure 5).
The MST measurements were performed on Monolith NT.115 (NanoTemper Technologies, GmbH, Germany) instrument using Premium capillaries. HSA sample was labeled using RED-NHS protein labeling kit. Assay buffer was PBS with added 0.1% Pluronic F-127 as the surface agent. Ligand samples were dissolved in DMSO and then diluted with the assay buffer to the final concentration. Serial dilutions of the ligand were prepared, the protein was then added and the mixtures were incubated for 10 min at laboratory temperature. Each experiment was performed in three parallel measurements. The results were evaluated in the instrument software (MO.Control v1.6, NanoTemper Technologies, GmbH, Germany).
For orientation: Microscale thermophoresis detects binding through changes in fluorescence in a small temperature gradient.

The target of data set [4] is T2, bovine serum albumin (BSA). The conditions noted are these: Site 1 of BSA; read-out: dissociation constant KD; cited from earlier work.
The test system of a further data set is human serum proteins. The note with it: concentration range 0.01 to 10 mg/L, equilibrium dialysis; cited from earlier work. (In general: Equilibrium dialysis compares concentrations on both sides of a semipermeable membrane.)

T1 sequence (P02768 25-609): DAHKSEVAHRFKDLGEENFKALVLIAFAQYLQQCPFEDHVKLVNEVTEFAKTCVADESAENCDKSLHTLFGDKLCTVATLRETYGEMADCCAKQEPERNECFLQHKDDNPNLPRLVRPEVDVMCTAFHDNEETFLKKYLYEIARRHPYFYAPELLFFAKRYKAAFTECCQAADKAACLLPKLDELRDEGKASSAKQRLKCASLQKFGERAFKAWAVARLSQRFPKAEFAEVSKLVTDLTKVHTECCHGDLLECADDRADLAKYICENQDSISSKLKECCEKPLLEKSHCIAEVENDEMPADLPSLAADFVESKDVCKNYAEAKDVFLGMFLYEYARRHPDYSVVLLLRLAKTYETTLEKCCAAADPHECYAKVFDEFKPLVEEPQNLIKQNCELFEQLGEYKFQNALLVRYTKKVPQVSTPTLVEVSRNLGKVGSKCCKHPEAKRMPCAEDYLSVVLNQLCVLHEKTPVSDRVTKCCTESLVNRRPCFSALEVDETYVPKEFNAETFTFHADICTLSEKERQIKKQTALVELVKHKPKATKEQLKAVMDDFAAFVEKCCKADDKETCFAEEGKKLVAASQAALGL
T2 sequence (P02769 25-607): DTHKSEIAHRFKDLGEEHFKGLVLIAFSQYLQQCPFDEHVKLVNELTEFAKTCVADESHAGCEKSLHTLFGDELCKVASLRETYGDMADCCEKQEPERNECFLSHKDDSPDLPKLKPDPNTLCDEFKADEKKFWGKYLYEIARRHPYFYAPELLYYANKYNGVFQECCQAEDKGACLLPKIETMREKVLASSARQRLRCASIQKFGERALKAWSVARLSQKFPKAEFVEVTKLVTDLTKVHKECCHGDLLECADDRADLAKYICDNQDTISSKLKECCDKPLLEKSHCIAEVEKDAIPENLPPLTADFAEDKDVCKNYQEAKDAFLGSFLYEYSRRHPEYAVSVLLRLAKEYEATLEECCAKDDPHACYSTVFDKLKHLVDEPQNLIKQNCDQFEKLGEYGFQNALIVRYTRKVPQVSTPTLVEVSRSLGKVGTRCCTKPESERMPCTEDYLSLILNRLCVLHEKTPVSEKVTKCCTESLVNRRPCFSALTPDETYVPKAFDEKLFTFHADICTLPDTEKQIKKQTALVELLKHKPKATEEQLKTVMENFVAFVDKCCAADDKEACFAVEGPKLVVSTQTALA

In the case of `CC(=O)O[C@H]1C[C@@]2(C)[C@@H](C[C@@H](O)[C@H]3[C@@]4(C)CC[C@@H](O)[C@@H](C)[C@@H]4CC[C@@]32C)/C1=C(\CCC=C(C)C)C(=O)O` [fusidic acid], in data set [1], the “change of HSA fluorescence with increasing ligand concentration” value is given as “remains more or less constant”. The “change of BSA fluorescence with increasing ligand concentration” value in data set [2] is “decrease”.

`O=c1c(O)c(-c2ccc(O)c(O)c2)oc2cc(O)cc(O)c12` [quercetin]: the Kd in data set [1] (binary system HSA + ligand) is 2.28 ± 0.61 µM; in data set [1] (ternary system [(HSA + R) + Q]: HSA pre-incubated with 400 μM R, Q varied), 34.7 ± 15.1 µM; in the data set on HSA (ref 13), 6.1 µM; in the data set on HSA (ref 14), 6.48 µM. The “bound to HSA” value in the data set with HSA was 99%.

`CCOC(=O)[C@H](CCc1ccccc1)N[C@@H](C)C(=O)N1[C@H](C(=O)O)C[C@@H]2CCC[C@@H]21` [ramipril]: the “KD for binding of R compared with KD for Q” value in data set [1] (HSA) was “more than hundredfold larger”. Besides, the Kd in data set [1] (binary system HSA + ligand) was 1220 ± 677 µM; in data set [1] (ternary system [(HSA + Q) + R]: HSA pre-incubated with 5 μM Q, R varied), 593 ± 90.6 µM; in data set [3] (binary system HSA + R, T = 297.05 K, pH 7.4, HSA 20 nM, read-out: KD (MST)) it was 775 ± 75.3 µM; in data set [3] (ternary system [(HSA + Q) + R], c(Q) 20 nM, HSA 20 nM, T = 297.05 K, pH 7.4, read-out: KD (MST)) it was 112 ± 24.6 µM; in data set [3] (ternary system [(HSA + Q) + R], from increase in fluorescence in the initial capillary scans, c(Q) 20 nM, HSA 20 nM, read-out: KD (MST Fluorescence)), 168 ± 29.8 µM; in data set [4], 28.5 µM. The “change of HSA fluorescence with increasing ligand concentration” value in data set [1] is on record as “increases”. Besides, the “bound to human serum proteins” value in the data set on human serum proteins is reported as 73%.

With `C[C@H](N[C@@H](CCc1ccccc1)C(=O)O)C(=O)N1[C@H](C(=O)O)C[C@@H]2CCC[C@@H]21` [ramiprilat], the “bound to human serum proteins” value with human serum proteins is on record as 56%.
